Laboratory results reported in PubChem BioAssay AID2060600 (Molecular Pharmacology Branch, DTP, NCI, 2025).

Test system: 996289-038-R-J1-PDC complex spheroid viability
Assay: Anticancer human tumor 996289-038-R-J1-PDC patient-derived colon adenocarcinoma cell line growth inhibition [CLK]
Conditions: for IC50: curve of first compound; for viability, T/C: stronger effect = lower value
In short: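 Patient-derived tumor cells grown as complex spheroids with HUVEC endothelial cells and mesenchymal stem cells, treated with drug combinations. Concentrations descend in half-log steps from near clinical Cmax, or from 10 microM if Cmax unknown.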

[1] = second compound 0.0316 µM, first compound 0.0316 µM
[2] = second compound 0.0316 µM, first compound 0.1 µM
[3] = second compound 0.0316 µM, first compound 0.316 µM
[4] = second compound 0.0316 µM, first compound 1 µM
[5] = second compound 0.0316 µM, first compound 3.16 µM
[6] = second compound 0.0316 µM, first compound 10 µM
[7] = second compound 0.1 µM, first compound 0.0316 µM
[8] = second compound 0.1 µM, first compound 0.1 µM
[9] = second compound 0.1 µM, first compound 0.316 µM
[10] = second compound 0.1 µM, first compound 1 µM
[11] = second compound 0.1 µM, first compound 3.16 µM
[12] = second compound 0.1 µM, first compound 10 µM
[13] = second compound 0.316 µM, first compound 0.0316 µM
[14] = second compound 0.316 µM, first compound 0.1 µM
[15] = second compound 0.316 µM, first compound 0.316 µM
[16] = second compound 0.316 µM, first compound 1 µM
[17] = second compound 0.316 µM, first compound 3.16 µM
[18] = second compound 0.316 µM, first compound 10 µM
[19] = second compound 1 µM, first compound 0.0316 µM
[20] = second compound 1 µM, first compound 0.1 µM
[21] = second compound 1 µM, first compound 0.316 µM
[22] = second compound 1 µM, first compound 1 µM
[23] = second compound 1 µM, first compound 3.16 µM
[24] = second compound 1 µM, first compound 10 µM
[25] = second compound 3.16 µM, first compound 0.0316 µM
[26] = second compound 3.16 µM, first compound 0.1 µM
[27] = second compound 3.16 µM, first compound 0.316 µM
[28] = second compound 3.16 µM, first compound 1 µM
[29] = second compound 3.16 µM, first compound 3.16 µM
[30] = second compound 3.16 µM, first compound 10 µM
[31] = second compound 10 µM, first compound 0.0316 µM
[32] = second compound 10 µM, first compound 0.1 µM
[33] = second compound 10 µM, first compound 0.316 µM
[34] = second compound 10 µM, first compound 1 µM
[35] = second compound 10 µM, first compound 3.16 µM
[36] = second compound 10 µM, first compound 10 µM
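Further: spheroids exposed to the agents for 7 days before readout.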

COc1cccc2c1C(=O)c1c(O)c3c(c(O)c1C2=O)CC(O)(C(=O)CO)CC3OC1CC(N)C(O)C(C)O1 (stereo unspecified) + CN1CCN(c2cc(C(=O)Nc3cc4cc(-c5cnn(C)c5)ccc4cn3)ccn2)CC1
IC50 (second compound 0.0316 µM): 1400 nM | IC50 (second compound 0.1 µM): 775 nM | IC50 (second compound 0.316 µM): 218 nM | IC50 (second compound 1 µM): < 31.6 nM | IC50 (second compound 3.16 µM): < 31.6 nM | IC50 (second compound 10 µM): < 31.6 nM | viability, T/C [1]: 89.6% | viability, T/C [2]: 91.8% | viability, T/C [3]: 71.9% | viability, T/C [4]: 52.5% | viability, T/C [5]: 45.2% | viability, T/C [6]: 33.8% | viability, T/C [7]: 89.3% | viability, T/C [8]: 83.5% | viability, T/C [9]: 60.2% | viability, T/C [10]: 44.5% | viability, T/C [11]: 40.6% | viability, T/C [12]: 26.3% | viability, T/C [13]: 67.8% | viability, T/C [14]: 56.9% | viability, T/C [15]: 42.1% | viability, T/C [16]: 38.6% | viability, T/C [17]: 33.6% | viability, T/C [18]: 16.1% | viability, T/C [19]: 4.05% | viability, T/C [20]: 4.33% | viability, T/C [21]: 4.01% | viability, T/C [22]: 3.89% | viability, T/C [23]: 4.94% | viability, T/C [24]: 7.17% | viability, T/C [25]: 0.81% | viability, T/C [26]: 1.53% | viability, T/C [27]: 2.41% | viability, T/C [28]: 2.9% | viability, T/C [29]: 5.23% | viability, T/C [30]: 5.47% | viability, T/C [31]: 1.39% | viability, T/C [32]: 0.35% | viability, T/C [33]: 0.5% | viability, T/C [34]: 0.45% | viability, T/C [35]: 0.53% | viability, T/C [36]: 0.61%

NC(=O)C(=Cn1cnc(-c2cc(C(F)(F)F)cc(C(F)(F)F)c2)n1)c1cncnc1 + CNC(=O)c1ccc(Nc2nc(OC3CCCC3)c3c(-c4ccc5nc(C)oc5c4)c[nH]c3n2)c(OC)c1
IC50 (second compound 0.0316 µM): 101 nM | IC50 (second compound 0.1 µM): 77 nM | IC50 (second compound 0.316 µM): 40.5 nM | IC50 (second compound 1 µM): 13 nM | IC50 (second compound 3.16 µM): < 9.49 nM | IC50 (second compound 10 µM): < 9.49 nM | viability, T/C (second compound 0.0316 µM, first compound 0.00949 µM): 98.9% | viability, T/C (second compound 0.0316 µM, first compound 0.03 µM): 79.4% | viability, T/C (second compound 0.0316 µM, first compound 0.0949 µM): 50.9% | viability, T/C (second compound 0.0316 µM, first compound 0.3 µM): 31.2% | viability, T/C (second compound 0.0316 µM, first compound 0.949 µM): 20% | viability, T/C (second compound 0.0316 µM, first compound 3 µM): 19.5% | viability, T/C (second compound 0.1 µM, first compound 0.00949 µM): 93.8% | viability, T/C (second compound 0.1 µM, first compound 0.03 µM): 71.5% | viability, T/C (second compound 0.1 µM, first compound 0.0949 µM): 45.8% | viability, T/C (second compound 0.1 µM, first compound 0.3 µM): 27.6% | viability, T/C (second compound 0.1 µM, first compound 0.949 µM): 17.7% | viability, T/C (second compound 0.1 µM, first compound 3 µM): 19% | viability, T/C (second compound 0.316 µM, first compound 0.00949 µM): 68.9% | viability, T/C (second compound 0.316 µM, first compound 0.03 µM): 55.2% | viability, T/C (second compound 0.316 µM, first compound 0.0949 µM): 33.8% | viability, T/C (second compound 0.316 µM, first compound 0.3 µM): 15% | viability, T/C (second compound 0.316 µM, first compound 0.949 µM): 13.4% | viability, T/C (second compound 0.316 µM, first compound 3 µM): 13.8% | viability, T/C (second compound 1 µM, first compound 0.00949 µM): 53.7% | viability, T/C (second compound 1 µM, first compound 0.03 µM): 40.1% | viability, T/C (second compound 1 µM, first compound 0.0949 µM): 19.5% | viability, T/C (second compound 1 µM, first compound 0.3 µM): 8.6% | viability, T/C (second compound 1 µM, first compound 0.949 µM): 8.98% | viability, T/C (second compound 1 µM, first compound 3 µM): 8.12% | viability, T/C (second compound 3.16 µM, first compound 0.00949 µM): 47.8% | viability, T/C (second compound 3.16 µM, first compound 0.03 µM): 35.6% | viability, T/C (second compound 3.16 µM, first compound 0.0949 µM): 15.5% | viability, T/C (second compound 3.16 µM, first compound 0.3 µM): 7.76% | viability, T/C (second compound 3.16 µM, first compound 0.949 µM): 6.08% | viability, T/C (second compound 3.16 µM, first compound 3 µM): 5.36% | viability, T/C (second compound 10 µM, first compound 0.00949 µM): 44.5% | viability, T/C (second compound 10 µM, first compound 0.03 µM): 33.8% | viability, T/C (second compound 10 µM, first compound 0.0949 µM): 12.8% | viability, T/C (second compound 10 µM, first compound 0.3 µM): 8.08% | viability, T/C (second compound 10 µM, first compound 0.949 µM): 5.49% | viability, T/C (second compound 10 µM, first compound 3 µM): 4.93%

COc1ccc([C@@H](O)c2cc(-c3ncnc4cc(N5CCOCC5)ccc34)c(F)cc2Cl)nn1 + CNC(=O)c1ccc(Nc2nc(OC3CCCC3)c3c(-c4ccc5nc(C)oc5c4)c[nH]c3n2)c(OC)c1
IC50 (second compound 0.0316 µM): > 10000 nM | IC50 (second compound 0.1 µM): > 10000 nM | IC50 (second compound 0.316 µM): 5720 nM | IC50 (second compound 1 µM): 2470 nM | IC50 (second compound 3.16 µM): 1410 nM | IC50 (second compound 10 µM): 1130 nM | viability, T/C [1]: 117% | viability, T/C [2]: 117% | viability, T/C [3]: 101% | viability, T/C [4]: 102% | viability, T/C [5]: 75.4% | viability, T/C [6]: 54.7% | viability, T/C [7]: 121% | viability, T/C [8]: 112% | viability, T/C [9]: 99.1% | viability, T/C [10]: 101% | viability, T/C [11]: 86.8% | viability, T/C [12]: 52.7% | viability, T/C [13]: 82.3% | viability, T/C [14]: 73.9% | viability, T/C [15]: 68.9% | viability, T/C [16]: 62.5% | viability, T/C [17]: 66% | viability, T/C [18]: 39.3% | viability, T/C [19]: 67.8% | viability, T/C [20]: 58.5% | viability, T/C [21]: 58.4% | viability, T/C [22]: 55.7% | viability, T/C [23]: 50.6% | viability, T/C [24]: 26.9% | viability, T/C [25]: 56.2% | viability, T/C [26]: 59.4% | viability, T/C [27]: 51.9% | viability, T/C [28]: 52% | viability, T/C [29]: 45.7% | viability, T/C [30]: 25.9% | viability, T/C [31]: 56% | viability, T/C [32]: 57% | viability, T/C [33]: 52.3% | viability, T/C [34]: 50.2% | viability, T/C [35]: 44.1% | viability, T/C [36]: 27.2%
